Measurements from patent US20210260010A1, “COMPOSITIONS AND METHODS FOR THE REDUCTION OR TREATMENT OF INFLAMMATION” (AXCELLA HEALTH INC., priority 2018, published 2021).

Experiments:
TNFα = assay: LPS-induced TNFα secretion in primary human monocyte-derived macrophages (ELISA); format: cell-based; design: TNFa Measurements Mean: unit not given here; details: for TNFa Measurements Mean: Donor 1, LPS 0.15 ng/mL; for TNFa Measurements Mean / Donor 2 TNFa Measurements Mean / Donor 3 TNFa Measurements Mean: baseline subtracted; for LPS-induced TNFα secretion: macrophages, 0.15 ng/mL LPS
Procedure: Unpurified buffy coats (Research Blood Components) were carefully poured into 50 mL centrifuge tubes and diluted with room temperature Dulbecco's Phosphate Buffered Saline (dPBS) with Calcium and Magnesium (Gibco). Diluted buffy coats were further divided into four total 50 mL centrifuge tubes at 20 mL per tube. Lymphocyte Separation Medium (Corning) was carefully pipetted to the bottom of each centrifuge tube. Mixtures were centrifuged at 850× g for 32 minutes at 20° C. with 0 deceleration and acceleration.
The PBMC layer was separated from other components after centrifugation and added to new 50 mL centrifuge tube containing 25 mL dPBS. Total volume was brought up to 50 mL with dPBS and centrifuged at 600×g for 10 minutes at 20° C. with acceleration of 9, deceleration of 5. Supernatant was carefully removed from cell pellets. The cell pellets were resuspended using 10 mL dPBS. Total volume was then brought up to 50 mL using dPBS and centrifuged at 450×g for 5 min at 20° C. with acceleration of 9, deceleration of 9. The supernatant removal and cell pellet resuspension was repeated again.
The supernatant was then carefully removed from cell pellets. Cell pellets were resuspended in 10 mL dPBS without calcium or magnesium and filtered through a 70 uM cell strainer. The total PBMC number was determined using a Cellometer K2 automated cell counter. A total of 5E6 cells were saved for flow cytometric analysis. Remaining cells were centrifuged at 490×g for 5 minutes at 20° C. with acceleration of 9, deceleration of 9.
CD14+ cells were selected using EasySep™ Human CD14 Positive Selection Kit II ([…] Technologies). Cells were resuspended in cold EasySep™ Buffer ([…] Technologies) at 1×10^8 cells/mL. A total of 100 uL/mL EasySep™ Human CD14 Positive Selection Cocktail II was added to the cell suspension, mixed, and incubated at room temperature for 10 minutes. A total of 100 uL/mL RapidSpheres were added to the mixture and incubated at room temperature for 3 minutes after mixing, then RoboSep buffer was added to bring up the total volume to 10 mL. The mixture in a 15 mL tube was placed in magnet and incubated at room temperature for 3 minutes. Supernatant was discarded and 10 mL fresh EasySep™ buffer was added to 15 mL tube. The addition of RoboSep buffer, mixing, and discarding of supernatant was repeated two more times.
Negative and positive fractions were centrifuged at 490×g for 5 minutes at 20° C. with acceleration of 9, deceleration of 9, and resuspended in DMEM (Gibco) and 10% Heat Inactivated Fetal Bovine Serum (Atlanta Bio) and Penicillin/Streptomycin. Cells were counted and centrifuged again at 490× g for 5 minutes at 20° C. with acceleration of 9, deceleration of 9. After centrifugation, cell were resuspended in DMEM (Gibco) and 10% Heat Inactivated Fetal Bovine Serum (Atlanta Bio) and Penicillin/Streptomycin containing 500 U/mL […] and plated at 1-2×10^6 cells/mL on 10 cm tissue culture plates. Cells were kept in 37° C., 5% CO2 in between feedings/harvest.
Cells were fed every 3-4 days by removing media and unattached cells, centrifuging at 490× g for 5 minutes at 20° C. with acceleration of 9, deceleration of 9, and resuspending in fresh DMEM (Gibco) and 10% Heat Inactivated Fetal Bovine Serum (Atlanta Bio) and Penicillin/Streptomycin containing GM-CSF. Resuspended cells were seeded back onto 10 cm tissue culture plates and incubated at 37° C., 5% CO2. Differentiated macrophages were used for subsequent experiments.
Primary human PMBC derived macrophages were seeded on day 0 at 3.0E4 cells per well in 96-well microplates (ThermoFisher) in Dulbecco's Modified Eagle Medium (DMEM) (Gibco) supplemented with penicillin-streptomycin (Hyclone) and 10% heat inactivated fetal bovine serum (HI-FBS) (Atlanta Bio) and incubated overnight at 37° C., 5% CO2. On day 1, cells were washed once with 150 uL per well DPBS (Gibco) and treated with 75 uL of: • a. […]

CCL18 = assay: IL-4 induced CCL18 secretion in primary human monocyte-derived macrophages (ELISA); format: cell-based; details: for Donor 1 CCL18 Measurements Mean / Donor 2 CCL18 Measurements Mean: relative to vehicle control; for CCL18 Measurements: Mean (fold change relative to vehicle control): IL-4 induced; for IL-4 induced CCL18 secretion (fold change relative to vehicle control): macrophages
Procedure: Lymphocytes were purified from unpurified buffy coats (Research Blood Components) using Lymphocyte Separation Medium (Corning). After centrifugation, the PBMC layer was extracted and rinsed several times using Dulbecco's phosphate-buffered saline (DPBS; Gibco). After straining PBMCs through a 70 uM cell strainer, cells were resuspended and counted using a Cellometer K2 automated cell counter.
CD14+ cells were selected using EasySep™ Human CD14 Positive Selection Kit II ([…] Technologies) according to manufacturer-supplied protocols. Following isolation CD14+ cells were seeded into 10 cm tissue culture plates and differentiated into macrophages using M-CSF (Peprotech).
On day 0, primary human PBMC derived macrophages were seeded in Dulbecco's Modified Eagle Medium (DMEM) (Gibco) supplemented with penicillin-streptomycin (Hyclone) and 10% heat inactivated fetal bovine serum (HI-FBS) (Atlanta Bio) into 96-well microplates (ThermoFisher) and incubated overnight at 37° C., 5% CO2. On day 1, cells were washed once with DPBS and then treated with: • a. Amino acid free DMEM (US Biologicals) containing a defined custom amino acid concentration based on the mean physiological concentrations in blood based on values published in the Human Metabolome Database (HMDB), with 6 mM glucose, 1 mM sodium pyruvate, 10 mM HEPES, penicillin-streptomycin; or • b. The same medium described above with one amino acid or amino acid combination at various concentrations
On day 2, cells were treated with the same mediums described above supplemented with recombinant human interleukin-4 (IL-4; Peprotech). Control wells were treated with tofacitinib (Tocris) and IL-4, PBS with IL-4, or phosphate buffered saline (PBS) alone.
On day 3, the supernatant was collected and immediately frozen in −80° C. freezer. Cells were washed once with DPBS and viability was assessed using the WST-8 Cell Proliferation Cytotoxicity Assay (Dojindo) according to manufacturer-supplied protocol. Following the assay, cells were washed twice with PBS and fixed with 4% paraformaldehyde. Protein levels in supernatant samples were analyzed by ELISA for CCL18 using commercially available kits (R&D Systems) according to manufacturer-supplied protocols.

NC(=O)CC[C@H](N)C(=O)O [Glutamine, L-Glutamine]
TNFa Measurements Mean (TNFα; Conc. 749 μM (baseline)): 0 | TNFa Measurements Mean (TNFα; Conc. 3747 μM): −45.7 | TNFa Measurements Mean (TNFα; Conc. 11242 μM): −65.24 | TNFa Measurements Mean (TNFα; Conc. 22484 μM): −103.07 | Donor 2 TNFa Measurements Mean (TNFα; Donor 2, Conc. 749 μM (baseline)): −9.5E−15 | Donor 2 TNFa Measurements Mean (TNFα; Donor 2, Conc. 3747 μM): 9.338 | Donor 2 TNFa Measurements Mean (TNFα; Donor 2, Conc. 11242 μM): 20.04 | Donor 2 TNFa Measurements Mean (TNFα; Donor 2, Conc. 22484 μM): 11.5 | Donor 3 TNFa Measurements Mean (TNFα; Donor 3, Conc. 749 μM (baseline)): 0 | Donor 3 TNFa Measurements Mean (TNFα; Donor 3, Conc. 3747 μM): 1.936 | Donor 3 TNFa Measurements Mean (TNFα; Donor 3, Conc. 11242 μM): 18 | Donor 3 TNFa Measurements Mean (TNFα; Donor 3, Conc. 22484 μM): 29.14 | LPS-induced TNFα secretion (TNFα; Donor 2): increased | LPS-induced TNFα secretion (TNFα; Donor 3): increased | Donor 1 CCL18 Measurements Mean (CCL18; Donor 1, Conc. 749 μM): 1.382 fold change | Donor 1 CCL18 Measurements Mean (CCL18; Donor 1, Conc. 3747 μM): 1.492 fold change | Donor 1 CCL18 Measurements Mean (CCL18; Donor 1, Conc. 11242 μM): 1.645 fold change | Donor 1 CCL18 Measurements Mean (CCL18; Donor 1, Conc. 22484 μM): 1.992 fold change | Donor 2 CCL18 Measurements Mean (CCL18; Donor 2, Conc. 749 μM): 1.4 fold change | Donor 2 CCL18 Measurements Mean (CCL18; Donor 2, Conc. 3747 μM): 1.559 fold change | Donor 2 CCL18 Measurements Mean (CCL18; Donor 2, Conc. 11242 μM): 1.857 fold change | Donor 2 CCL18 Measurements Mean (CCL18; Donor 2, Conc. 22484 μM): 2.219 fold change | CCL18 Measurements: Mean (fold change relative to vehicle control) (CCL18; Donor 3, Conc. 749 μM): 1.56 fold change | CCL18 Measurements: Mean (fold change relative to vehicle control) (CCL18; Donor 3, Conc. 3747 μM): 1.606 fold change | CCL18 Measurements: Mean (fold change relative to vehicle control) (CCL18; Donor 3, Conc. 11242 μM): 2.428 fold change | CCL18 Measurements: Mean (fold change relative to vehicle control) (CCL18; Donor 3, Conc. 22484 μM): 2.33 fold change | IL-4 induced CCL18 secretion (fold change relative to vehicle control) (CCL18; Donor 1): significantly increased | IL-4 induced CCL18 secretion (fold change relative to vehicle control) (CCL18; Donor 2): significantly increased | IL-4 induced CCL18 secretion (fold change relative to vehicle control) (CCL18; Donor 3): significantly increased

CC(C)[C@H](N)C(=O)O [Valine, L-Valine]
TNFa Measurements Mean (TNFα; Conc. 234 μM (baseline)): 0 | TNFa Measurements Mean (TNFα; Conc. 4684 μM): −40.37 | TNFa Measurements Mean (TNFα; Conc. 11710 μM): −41.77 | TNFa Measurements Mean (TNFα; Conc. 23420 μM): −14.98 | Donor 2 TNFa Measurements Mean (TNFα; Donor 2, Conc. 234 μM (baseline)): −4.7E−15 | Donor 2 TNFa Measurements Mean (TNFα; Donor 2, Conc. 4684 μM): −0.00221 | Donor 2 TNFa Measurements Mean (TNFα; Donor 2, Conc. 11710 μM): −0.835 | Donor 2 TNFa Measurements Mean (TNFα; Donor 2, Conc. 23420 μM): −1.251 | Donor 3 TNFa Measurements Mean (TNFα; Donor 3, Conc. 234 μM (baseline)): −2.4E−15 | Donor 3 TNFa Measurements Mean (TNFα; Donor 3, Conc. 4684 μM): 0.126 | Donor 3 TNFa Measurements Mean (TNFα; Donor 3, Conc. 11710 μM): −2.599 | Donor 3 TNFa Measurements Mean (TNFα; Donor 3, Conc. 23420 μM): 3.688 | Donor 1 CCL18 Measurements Mean (CCL18; Donor 1, Conc. 234 μM): 1.109 fold change | Donor 1 CCL18 Measurements Mean (CCL18; Donor 1, Conc. 4684 μM): 1.264 fold change | Donor 1 CCL18 Measurements Mean (CCL18; Donor 1, Conc. 11710 μM): 1.442 fold change | Donor 1 CCL18 Measurements Mean (CCL18; Donor 1, Conc. 23420 μM): 0.9491 fold change | Donor 2 CCL18 Measurements Mean (CCL18; Donor 2, Conc. 234 μM): 1.255 fold change | Donor 2 CCL18 Measurements Mean (CCL18; Donor 2, Conc. 4684 μM): 1.545 fold change | Donor 2 CCL18 Measurements Mean (CCL18; Donor 2, Conc. 11710 μM): 1.998 fold change | Donor 2 CCL18 Measurements Mean (CCL18; Donor 2, Conc. 23420 μM): 2.269 fold change | CCL18 Measurements: Mean (fold change relative to vehicle control) (CCL18; Donor 3, Conc. 234 μM): 0.7896 fold change | CCL18 Measurements: Mean (fold change relative to vehicle control) (CCL18; Donor 3, Conc. 4684 μM): 0.9781 fold change | CCL18 Measurements: Mean (fold change relative to vehicle control) (CCL18; Donor 3, Conc. 11710 μM): 0.9976 fold change | CCL18 Measurements: Mean (fold change relative to vehicle control) (CCL18; Donor 3, Conc. 23420 μM): 1.082 fold change | IL-4 induced CCL18 secretion (fold change relative to vehicle control) (CCL18; Donor 2): significantly increased
